{"source": "patent US12030893B2", "about": "“Near-infrared nerve-sparing benzo[c]phenoxazine fluorophores” (OREGON HEALTH & SCIENCE UNIVERSITY, priority 2018, dated 2024)", "key": {"[1]": {"test_system": "murine brachial plexus and sciatic nerves", "assay": "In vivo nerve-specificity screening via systemic administration", "parameters": "species or system mice", "settings": "500 nmol intravenously in co-solvent formulation; sacrificed at 0.5 h, 1 h, 2 h, 4 h", "description": "Each compound was screened for its tissue-specificity using a previously published systemic administration strategy in murine brachial plexus and sciatic nerves.^1 Each compound from the benzo[c]phenoxazine library was formulated in the previously utilized co-solvent formulation (10% DMSO, 5% Kolliphor, 65% serum and 20% phosphate buffered saline) at 2.5 mM. 200 μL of the formulated fluorophore was administered intravenously before exposing the brachial plexus and sciatic nerves. Co-registered fluorescence and color images were collected of each nerve site using a custom built macroscopic imaging system with 710/75 nm excitation and 810 nm longpass emission filters. Custom written MatLab code was used to analyze the tissue specific fluorescence where regions of interest were selected on the nerve, muscle and adipose tissue using the white light images. These regions of interest were then analyzed on the co-registered matched fluorescence images permitting assessment of the nerve to muscle and nerve to adipose ratios in blinded manner.\nIn vivo nerve-specificity screening of the benzo[c]phenoxazine derivative library. Each compound was screened for its tissue-specificity using a direct administration strategy (Barth & Gibbs, Theranostics 7, 573-593 (2017)) where nerve contrast was examined in murine brachial plexus and sciatic nerves. The benzo[c]phenoxazine derivatives were solubilized for in vivo use in the previously described co-solvent formulation (Gibbs-Strauss et al., Molecular imaging 10, 91-101 (2011)). The previously optimized staining procedure was utilized (Gibbs et al., PloS one 8, e73493 (2013)), which is described briefly as follows. […] Unstained nerve sites were used for all control images to quantify autofluorescence. […] The quantified tissue fluorescence intensities following direct administration of the fluorophores were used to calculate nerve-to-muscle, nerve-to-cut muscle, and nerve-to-adipose ratios as metrics of nerve contrast. […] Uninjected animals were used for all control images to quantify autofluorescence. Similarly to quantification protocol for the direct administration, the quantified tissue fluorescence intensities following systemic administration of the fluorophores were used to calculate nerve-to-muscle and nerve-to-adipose ratios as metrics of nerve contrast. […]\nIntraoperative fluorescence imaging systems. A custom-built small animal imaging system capable of real-time color and fluorescence imaging was used to acquire in vivo rodent images (Hackman et al., Molecular pharmaceutics (2015)). Briefly, the imaging system consisted of a QImaging EXi Blue monochrome camera (Surrey, British Columbia, CA) for fluorescence detection with a removable Bayer filter for collection of co-registered color and fluorescence images. […]"}, "[2]": {"test_system": "murine brachial plexus and sciatic nerves", "assay": "In vivo nerve-specificity screening via direct/topical administration", "parameters": "species or system mice", "settings": "500 μM in co-solvent formulation, 100 μL incubated 5 minutes on exposed nerve, imaged 30 minutes after staining; selected for further systemic screening", "description": "Each compound was screened for its tissue-specificity using a previously published direct/topical administration strategy in murine brachial plexus and sciatic nerves.^1 Each compound from the benzo[c]phenoxazine library was formulated in the previously utilized co-solvent formulation (10% DMSO, 5% Kolliphor, 65% serum and 20% phosphate buffered saline) at 500 μM. 100 μL of the formulated Oxazine were incubated on the exposed brachial plexus or sciatic nerve for 5 minutes. The fluorophore containing solution was removed and the area was irrigated with saline 18 times to remove any unbound fluorophore. Co-registered fluorescence and color images were collected of each stained area 30 minutes after benzo[c]phenoxazine direct/topical administration using a custom built macroscopic imaging system with 710/75 nm excitation and 810 nm longpass emission filters. Custom written MatLab code was used to analyze the tissue specific fluorescence where regions of interest were selected on the nerve, muscle, cut muscle and adipose tissue using the white light images. These regions of interest were then analyzed on the co-registered matched fluorescence images permitting assessment of the nerve-to-muscle, nerve-to-cut muscle, and nerve-to-adipose ratios in blinded manner.\nIn vivo nerve-specificity screening of the benzo[c]phenoxazine derivative library. Each compound was screened for its tissue-specificity using a direct administration strategy (Barth & Gibbs, Theranostics 7, 573-593 (2017)) where nerve contrast was examined in murine brachial plexus and sciatic nerves. The benzo[c]phenoxazine derivatives were solubilized for in vivo use in the previously described co-solvent formulation (Gibbs-Strauss et al., Molecular imaging 10, 91-101 (2011)). The previously optimized staining procedure was utilized (Gibbs et al., PloS one 8, e73493 (2013)), which is described briefly as follows. The brachial plexus and sciatic nerves were surgically exposed by removal of overlaying adipose and muscle tissues. The benzo[c]phenoxazine compound was formulated at 500 μM in the co-solvent formulation and 100 μL was incubated on the exposed brachial plexus or sciatic nerve for 5 minutes. The fluorophore containing solution was removed and the area was irrigated with saline nine times, followed by a five-minute incubation with blank formulation and then irrigation with saline nine more times to remove any unbound fluorophore. Images were acquired 30 minutes following completion of staining. Unstained nerve sites were used for all control images to quantify autofluorescence. Each benzo[c]phenoxazine derivative was screened in n=3 mice or 6 nerve sites/fluorophore. The quantified tissue fluorescence intensities following direct administration of the fluorophores were used to calculate nerve-to-muscle, nerve-to-cut muscle, and nerve-to-adipose ratios as metrics of nerve contrast. […] Uninjected animals were used for all control images to quantify autofluorescence. Similarly to quantification protocol for the direct administration, the quantified tissue fluorescence intensities following systemic administration of the fluorophores were used to calculate nerve-to-muscle and nerve-to-adipose ratios as metrics of nerve contrast. […]\nIntraoperative fluorescence imaging systems. A custom-built small animal imaging system capable of real-time color and fluorescence imaging was used to acquire in vivo rodent images (Hackman et al., Molecular pharmaceutics (2015)). […]"}, "[3]": {"settings": "longest among reported nerve-specific fluorophores; cited from earlier work"}}, "data": [{"smiles": "CCN(CC)c1ccc2c3c(ccc2c1)N=c1cc2c(cc1O3)=NCCC2", "note": "[LGW07-14, 3-(diethylamino)-10,11-dihydro-9H-benzo[h]pyrido[3,2-b]phenoxazin-12-ium]", "values": [{"measurement": "outcome of nerve-specificity screening (nerve-to-muscle, nerve-to-adipose ratios) following systemic administration", "setting": "[1]", "value": "selected as lead benzo[c]phenoxazine nerve-specific fluorophores"}, {"measurement": "outcome of nerve-specificity screening (nerve-to-muscle, nerve-to-cut muscle, nerve-to-adipose ratios) following direct administration", "setting": "[2]", "value": "lead candidates"}]}, {"smiles": "CCN(CC)c1ccc2c(ccc3nc4ccc(=[N+](C)C)cc-4oc32)c1", "note": "[LGW07-92, N-(3-(diethylamino)-10H-benzo[c]phenoxazin-10-ylidene)-N-methylmethanaminium]", "values": [{"measurement": "outcome of nerve-specificity screening (nerve-to-muscle, nerve-to-cut muscle, nerve-to-adipose ratios) following direct administration", "setting": "[2]", "value": "lead candidates"}]}, {"smiles": "CC/N=c1\\ccc2nc3ccc4cc(N(CC)CC)ccc4c3oc-2c1C", "note": "[LGW08-35, (E)-N-(3-(diethylamino)-11-methyl-10H-benzo[c]phenoxazin-10-ylidene)ethanaminium]", "values": [{"measurement": "outcome of nerve-specificity screening (nerve-to-muscle, nerve-to-adipose ratios) following systemic administration", "setting": "[1]", "value": "selected as lead benzo[c]phenoxazine nerve-specific fluorophores"}, {"measurement": "outcome of nerve-specificity screening (nerve-to-muscle, nerve-to-cut muscle, nerve-to-adipose ratios) following direct administration", "setting": "[2]", "value": "lead candidates"}]}, {"smiles": "CC/N=c1/cc2oc3c(ccc4cc(N(CC)CC)ccc43)nc-2c(C)c1", "note": "[LGW08-46, (E)-N-(3-(diethylamino)-8-methyl-10H-benzo[c]phenoxazin-10-ylidene)ethanaminium]", "values": [{"measurement": "outcome of nerve-specificity screening (nerve-to-muscle, nerve-to-adipose ratios) following systemic administration", "setting": "[1]", "value": "selected as lead benzo[c]phenoxazine nerve-specific fluorophores"}, {"measurement": "outcome of nerve-specificity screening (nerve-to-muscle, nerve-to-cut muscle, nerve-to-adipose ratios) following direct administration", "setting": "[2]", "value": "lead candidates"}]}, {"smiles": "CC/N=c1/cc2oc3c(ccc4cc(N(CC)CC)ccc43)nc-2cc1C", "note": "[LGW 05-25, (Z)—N-(3-(diethylamino)-9-methyl-10H-benzo[c]phenoxazin-10-ylidene)ethanaminium]", "values": [{"measurement": "outcome of nerve-specificity screening (nerve-to-muscle, nerve-to-adipose ratios) following systemic administration", "setting": "[1]", "value": "selected as lead benzo[c]phenoxazine nerve-specific fluorophores"}, {"measurement": "outcome of nerve-specificity screening (nerve-to-muscle, nerve-to-cut muscle, nerve-to-adipose ratios) following direct administration", "setting": "[2]", "value": "lead candidates"}]}, {"smiles": "CC/N=c1/cc2oc3cc(NCC)c(C)cc3nc-2cc1C", "note": "[Oxazine 4]", "values": [{"measurement": "emission wavelength maximum", "setting": "[3]", "value": 635, "unit": "nm"}]}]}
